# Measured values reported in article PMC8038991, “R-catcher, a potent molecular tool to unveil the arginylome” (Cellular and Molecular Life Sciences: CMLS, 2021).
# “Also recorded” adds a separate entry of the source. Like-named read-outs stand apart in the source and are kept apart here. Peptide text beside a SMILES is read from it.
# Legend:
# [1] = test system: ZZ wild type, ZZ (N132D) and ZZ (N132Q); assay: Isothermal titration calorimetry, any ZZ domain (wild type, N132D, N132Q); assay type: binding, human; settings: ITC, 25 °C
# Procedure: (§1) For isothermal titration calorimetry (ITC), GST-fused p62 (122–175) wild type and mutants (N132Q and N132D) were expressed in E. coli BL21 (DE3) RIL competent cells in Luria–Bertani media with 0.1 mM Isopropyl-β-D-thio-galactoside (IPTG) at 18 °C. Cells were collected and sonicated in a B buffer (50 mM Tris–HCl pH 7.5, 200 mM NaCl) containing 3 mM β-mercaptoethanol (β-ME). Cell lysates were centrifuged at 18,000 × g for 1 h to remove cell debris, and this supernatant was loaded onto Glutathione Sepharose™ 4 Fast Flow resin and washed with B buffer. GST-fused proteins were eluted with 20 mM glutathione in an elution buffer (100 mM Tris–HCl pH 7.5, 200 mM NaCl, and 3 mM β-ME). The eluted samples were dialyzed in a dialysis buffer (50 mM Tris–HCl pH 7.5, 50 mM NaCl, and 3 mM β-ME) with or without TEV protease. These samples were loaded onto anion exchange column (HiTrap Q HP, GE Healthcare) and unbounded samples were collected and loaded onto size exclusion chromatography (HiLoad ™ 25/600 Superdex™ 75 pg column, GE healthcare) with the B buffer containing 0.2 mM Tris(2-carboxyethyl)phosphine (TCEP).
# (§2) Purified proteins were concentrated to 0.05 mM. 4-mer peptides as injectant were resolved in B buffer to a final concentration of 1 mM. ITC measurement was performed at 25 °C on a Microcal Auto-ITC200.
# R-catcher [2] = assay: Small-scale R-catcher pulldown of known arginylated proteins; assay type: binding, human; settings: for pulldown by R-catcher, overexpressed substrates: HEK293 cells, R-catcher on tactin beads, immunoblot
# Procedure: (§3) For small-scale R-catcher pull-down assays, 300 µg of purified R-catcher was conjugated with 120 µl of Strep-Tactin sepharose resin by incubating overnight at 4 °C. To test R-catcher’s ability to capture known arginylated proteins, such as R-BiP, R-PDI, R-nsP4 and R-RGS4, plasmids encoding Ub-X-(BiP, PDI and nsP4) or MX-RGS4 (X = Arg or Val) were transiently transfected into HEK293 cells. After 24 h, cells were treated with 10 µM MG132 and 100 nM thapsigargin for another 24 h. Cells were harvested and lysed in hypotonic buffer and 300 µg total protein was incubate with 25 µl R-catcher-sepharose resin in binding buffer (20 mM HEPES pH 7.9, 0.05% Tween 20, 10% glycerol, 0.2 M KCl, protease inhibitor and phosphatase inhibitor) for 3 h with gentle rotation at 4 °C. After three washes with binding buffer, bound proteins were dissociated with 2 × SDS sample buffer and boiling at 100 °C and subjected to immunoblotting using anti-myc or flag antibodies.
# [3] = test system: HeLa cell extracts stimulated with MG132 plus TG; assay: Large-scale R-catcher pulldown coupled to silver staining and LC-MS/MS; parameters: species or system human; settings: for presence in R-catcher working list: LC-MS/MS working list
# Procedure: For large-scale R-catcher pulldown assays, HeLa cells were treated with 5 µM MG132 and 100 nM thapsigargin for 24 h. Cells were lysed in hypotonic buffer and 10 mg total was incubated with 750 µl R-catcher-sepharose beads for 3 h at 4 °C after pre-clearing with D129A mutant R-catcher-sepharose beads for 3 h at 4 °C. After three washes with binding buffer, bound proteins were eluted with binding buffer containing 20 mM D-biotin. To remove R-catcher, the eluent was dialyzed using 20 kDa cut-off dialysis membrane in binding buffer containing 3.5 M MgCl2 overnight followed by another overnight dialysis in distilled-deionized water. The dialyzed eluent was lyophilized overnight and dried powder was dissolved in 100 µl LC/MS solubilizer for silver staining and mass spectrometry analysis.
# Protein samples solubilized in Invitrosol LC/MS solubilizer (Invitrogen) as following by manufacturer protocol. For removal of incompatible buffer components, protein samples filtrate with 10 K MW ultrafilter for complete digestion. For preparing trypsinization of samples, the retentates were dissolved in 50 mM of ammonium bicarbonate (pH 8.0) untill it reach 1 μg/μL of final concentration. The samples treated with 10 mM DTT at 60 °C for 45 min. Following 20 mM IAA addition, the final mixture incubated in dark for 45 min at 25 °C. 1:50 ratio of Trypsin was added on mixture. The mixture incubated overnight at 37 °C. Final digested samples dried with speed-vacuum. Samples re-dissolved in 20 μL of water containing 0.1% formic acid for LC–MS/MS analysis.
# Peptides were analyzed using a LC–MS/MS system consisting of an Easy nLC 1000 (Thermo Fisher scientific) and an Orbitrap Fusion Lumos mass spectrometer (Thermo Fisher Scientific) equipped with a nano-electrospray source (EASY-Spray Sources, Thermo Fisher Scientific). Peptides were trapped 75 μm × 2 cm C18 pre-column (nanoViper, Acclaim PepMap100, Thermo Fisher Scientific) before being separated on an analytical C18 column (75 μm × 50 cm PepMap RSLC, Thermo Fisher Scientific) at a flow rate of 300 nL/min. The mobile phases A and B were composed of 0 and 100% acetonitrile containing 0.1% formic acid, respectively. The LC gradient began with 5% B and was ramped to 8% B for 1 min, 10% B for 16 min, to 40% B for 79 min, to 80% B for 1 min, and remained at 80% B over 8 min. Finally, it was ramped to 5% B for another 5 min. The column was re-equilibrated with 2% B for 10 min before the next run. The voltage applied to produce an electrospray was 1900 V. During the chromatographic separation, the Orbitrap Fusion Lumos was operated in data-dependent mode, automatically switching between MS1 and MS2. The MS data were acquired using the following parameters: Full-scan MS1 spectra (400–1600 m/z) were acquired in the Orbitrap for a maximum ion injection time of 100 ms at a resolution of 120,000 and an automatic gain control (AGC) target value of 4.0e5. MS2 spectra were acquired in the Orbitrap mass analyzer at resolution of 30,000 with high-energy collision dissociation (HCD) of 27% normalized collision energy and AGC target value of 5.0e4 with maximum ion injection time of 54 ms. Previously fragmented ions were excluded for 30 s.
# MS/MS spectra were analyzed using the following software analysis protocols with the Uniprot human DB (2019). The reversed sequences of all proteins were appended into the database for calculation of false discovery rate (FDR). ProLucid was used to identify the peptides, a precursor mass error of 5 ppm, and a fragment ion mass error of 200 ppm. Trypsin was selected as the enzyme, with one potential missed cleavage. Carbamidomethylation at cystein was chosen as static modifications. Oxidation at methionine was chosen as variable modification. The output data files were filtered and sorted to compose the protein list using the DTASelect (The Scripps Research Institute, USA) with two and more peptides assignments for a protein identification and a false positive rate less than 0.01. […]
# R-catcher [4] = assay: R-catcher pulldown of putative arginylated ER proteins, HeLa; assay type: binding, human; settings: 5 µM MG132 plus 100 nM TG, RA competition, Fig. 6a
# Procedure: as §3
# Plasmids encoding the proteins were transiently transfected to HeLa cells for 24 h and stimulated with 5 µM MG132 plus 100 nM TG for another 24 h. Cell lysates were incubated with R-catcher immobilized on tactin beads for 3 h. After wash, bound proteins were eluted with 2 × SDS sample buffer followed by boiling at 100 °C for 10 min and visualized by western blot analysis. b R-catcher pulldown assays to validate ATE1-dependent arginylation of […]1, PRDX4, FBLN1 and CLUS. Plasmids encoding […]1, PRDX4, FBLN1 and CLUS were transiently transfected into + / + and ATE1^−/− MEFs for 24 h and stimulated with 5 µM MG132 plus 100 nM TG for another 9 h. Cell lysates were subjected to R-catcher pulldown, and bound proteins were detected by western blot analysis. c R-catcher pull-down assays to evaluate if the arginylation of FBNL1, SERPINH1, CLUS and PRDX4 is induced in response to MG132 plus thapsigargin. d X-peptide pulldown assays to confirm no interaction of R-catcher with Nt-Ala19 of SERPINH1 peptides and Nt-Trp38 of PRDX4 peptides. X-peptides where X is A19 (SignalP predicted P1’ site), E20 (next possible P1’ site predicted by PrediSi) or R19 (Arginylated form of Glu) for SERPINH1 and W38 (SignalP predicted P1’ site), E39 (next possible P1’ site predicted by PrediSi) or R38 (Arginylated form) for PRDX4. Biotinylated X-peptides immobilized on streptavidin agarose beads were incubated with affinity-purified GST-ZZ ([…]). Bound GST-ZZ (N132D) was detected by immunoblotting. e Identification of arginylated sites employing mutational analysis. Predicted P1’ sites of SERPINH1, PRDX4, CLUS and FBLN1 were substituted to Gly, and the inhibitory effect of the mutation on binding with R-catcher was examined by performing R-catcher pulldown assays
# [5] = target: T1, wild type ZZ122-175 (p62) (Homo sapiens, UniProt Q13501); assay: Isothermal titration calorimetry, wild type ZZ (Fig. 3b); settings: ITC, wild type ZZ122-175, 25 °C; read-out: binding affinity (KD)
# T1 construct: GST-fused p62 (122–175) wild type and mutants (N132Q and N132D) were expressed in E. coli; GST (N); made in house; host or cells: E. coli BL21 (DE3) RIL
# T1 sequence (Q13501 122-175): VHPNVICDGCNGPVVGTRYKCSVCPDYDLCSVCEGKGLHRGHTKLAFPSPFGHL
# [6] = target: T2, GST-ZZ122-175 domain (p62) (Homo sapiens, UniProt Q13501); assay: Isothermal titration calorimetry, GST-ZZ122-175 (Fig. 2e); assay type: binding
# T2 construct: GST-fused p62 (122–175) wild type and mutants (N132Q and N132D) were expressed in E. coli; made in house; host or cells: E. coli BL21 (DE3) RIL
# T2 sequence (Q13501 122-175): as above
# Procedure: as §1, §2
# [7] = target: T3, N132D mutant ZZ122-175 (p62) (Homo sapiens, UniProt Q13501, N132D); assay: Isothermal titration calorimetry, N132D ZZ; settings: ITC, N132D ZZ122-175, 25 °C; read-out: binding affinity (KD)
# T3 construct: GST-fused p62 (122–175) wild type and mutants (N132Q and N132D) were expressed in E. coli; GST (N); made in house; host or cells: E. coli BL21 (DE3) RIL
# T3 sequence (Q13501 122-175 N132D): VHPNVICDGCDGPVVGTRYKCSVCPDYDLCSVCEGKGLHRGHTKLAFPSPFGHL
# [8] = target: T4, N132Q mutant ZZ122-175 (p62) (Homo sapiens, UniProt Q13501, N132Q); assay: biochemical; assay type: binding
# T4 construct: GST-fused p62 (122–175) wild type and mutants (N132Q and N132D) were expressed in E. coli; GST (N); made in house; host or cells: E. coli BL21 (DE3) RIL
# T4 sequence (Q13501 122-175 N132Q): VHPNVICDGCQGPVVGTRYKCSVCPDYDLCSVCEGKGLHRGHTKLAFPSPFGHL
compound,measurement,setting,value
IIFS [peptide],affinity for ZZ domains,[1],no affinity
LIFS [peptide],affinity for ZZ domains,[1],no affinity
"PDI: protein disulfide isomerase, arginylated (2nd Asp)",binding affinity for R-catcher,"R-catcher [2]; Fig. 4d, discussion",low binding affinity
same,"pulldown by R-catcher, overexpressed substrates",R-catcher [2]; Fig. 4d,could pulldown
same,presence in R-catcher working list,[3],not detected in our list
ENPL: endoplasmin,"binding with R-catcher, Nt-Arg dependence",R-catcher [4],no significant binding affinity for R-catcher
FKBP10: FK506-binding protein 10,"binding with R-catcher, Nt-Arg dependence",R-catcher [4],Nt-Arg-dependent binding with R-catcher; also recorded: unusually high binding affinity for R-catcher
R-PDI: arginylated PDI,"R-PDI binding to R-catcher, preliminary","R-catcher [2]; preliminary result, N-termini enhancing methods",detected R-PDI binding to R-catcher
"BiP: ER chaperone BiP, arginylated (2nd Glu)","pulldown by R-catcher, overexpressed substrates",R-catcher [2]; Fig. 4d,could pulldown
same,"pulldown by R-catcher, endogenous","R-catcher [2]; HeLa, MG132 plus TG, Fig. 4e",could pulldown
same,presence in R-catcher working list,[3],among the known arginylated proteins
"R-catcher: ZZ122-175^N132D tagged with twin strepII-His6 at the N-terminus, approximately 9 kDa protein",number of known and putative arginylated proteins captured (final working list),"[3]; HeLa, MG132 + TG",59 proteins
same,number of proteins in WT list,"[3]; no dipeptide, LC-MS/MS, Fig. 5c",83 proteins
same,number of proteins in AR list,[3]; with AR dipeptide competition,163 proteins
same,number of proteins in RA list,[3]; with RA dipeptide competition,42 proteins
CC[C@H](C)[C@H](NC(=O)[C@@H](N)Cc1ccc(O)cc1)C(=O)N[C@@H](Cc1ccccc1)C(=O)N[C@@H](CO)C(=O)O [YIFS] (H-YIFS-OH),Kd,[5],20.7 µM
same,Kd,"[6]; ITC, (GST-)ZZ122-175 wild type, 25 °C, read-out: KD",16.1 µM
same,Kd,[7],107 µM
CC[C@H](C)[C@H](NC(=O)[C@@H](N)CCCNC(=N)N)C(=O)N[C@@H](Cc1ccccc1)C(=O)N[C@@H](CO)C(=O)O [RIFS] (H-RIFS-OH),Kd,[5],6.9 µM
same,Kd,[6],4.39 ± 0.449 µM
same,Kd,[7],2.85 µM
same,Kd,[8],21.4 ± 9.51 µM
FIFS [peptide],affinity for ZZ domains,[1],no affinity
TIFS [4-mer peptide],affinity for ZZ domains,[1],no affinity
